Data from patent publication US4166765A, “Detecting Neisseria bacteria” (Corning Glass Works, priority 1977, dated 1979).

tested on: 1,2-propanediol dehydrogenase; experiment: Substrate specificity of the enzyme on analogs of 1,2-propanediol using NAD; format: biochemical, Neisseria; set-up: concentration or dose not given beside the values; details: substrate with NAD; relative to 1,2-propanediol = 100
Protocol: The following reagents were added to 12×75 mm plastic tubes:
To each test tube was added 100 μl of a bacterial lysate. Incubations varied in time from being read immediately and continuously for 4 minutes, to allowing the assay tubes to incubate one-half hour before reading. All procedures and incubations were carried out at room temperature.
The samples were read at 340 nm (ultraviolet) on a Perkin-Elmer double beam spectrophotometer. A Honeywell Electronik 194 recorder was used to record absorbency. The tests that were read immediately and continuously for 4 minutes were allowed to record for the same time period. Those tests read after 30 minutes were not read continuously, but had their absorbencies recorded after the incubation period [Activity (A) was determined in the 4 minute monitored assay and in the 30 minute assay].
In order to examine the specificity of the substrate with respect to the enzyme, it was assayed on several analogs of 1,2-propanediol using NAD.

Going from `OCC(O)CCl` (stereo not shown) [1 chloro 2,3-propanediol] to `CCC(O)CO` (stereo not shown) [1,2 butanediol], the “% Reactivity” value rises from 0% to 10%.

`OCCO` [1,2 ethanediol] and `OCCCO` [1,3 propanediol] are the same in “% Reactivity” value: 0% for the first, 0% for the second.

Going from `CC(O)CO` (stereo not shown) [1,2-propanediol] to `OCC(O)CO` [Glycerol], the “% Reactivity” value falls from 100% to 1%.

`CCCO` [1-propanol] and `CCO` [Ethanol] are the same in “% Reactivity” value: 0% for the first, 0% for the second.

Compared with `CC(C)O` [2-propanol], `O=C(CO)CO` [Dihydroxyacetone] is higher in “% Reactivity” value: 0% for the first, 21% for the second.
